In patent US11879145B2, “Reagents and methods for replication, transcription, and translation in semi-synthetic organisms” (The Scripps Research Institute, priority 2019, dated 2024):

System: sfGFP^151(AXC)
Test: Optimization of unnatural ribonucleotide triphosphate concentrations (sfGFP fluorescence and protein shift)
Type: cell-based, E. coli
Protocol: Examples 1A, 1B, and 2 identified dCNMO-dTPT3 as a competent UBP for the storage of information, and TAT1TP and NaMTP or 5FMTP as competent ribonucleoside triphosphates for its retrieval. Upon transformation with the same plasmids used above, 10 μM dTPT3TP and 25 μM dCNMOTP were provided in the growth media, which was then also supplemented with TAT1TP at concentrations ranging from 100 μM to 12.5 μM, and either NaMTP or 5FMTP at concentrations ranging from 200 μM to 12.5 μM, all in series of 2-fold dilutions, and after the addition of 1 mM AzK, the cells were induced to express sfGFP. […] In both cases, fluorescence was higher at lower concentrations of NaMTP or 5FMTP (due to increased production of contaminating natural sfGFP, see below). Additionally, cells generally produced higher fluorescence at higher concentrations of TAT1TP. […] Protein production was again quantified via the gel shift assay (FIG. 6C and FIG. 6D). Generally, as the concentration of NaMTP decreased below 200 μM, incrementally lower fidelity of AzK incorporation into sfGFP was observed, while with use of 5FMTP this reduction in fidelity was only observed below a concentration of 50 μM. Clearly lower concentrations of 5FMTP can be used without compromising fidelity. Cells provided with a high concentration of 5FMTP (≥50 µM) produced high protein shifts at all concentrations of TAT1TP explored (100 μM, 50 μM, 25 μM, or 12.5 μM).
Optimization of in vivo Translation Conditions. An overnight culture of the SSO strain ML2 carrying the pGEX-MbPylRS TetR plasmid was grown in 2×YT supplemented with 50 mM potassium phosphate, […] chloramphenicol and 100 μg/mL carbenicillin (herein referred to in this section as “media”), then diluted back to an OD600 of 0.03 in the same media and grown to an OD600 of 0.4-0.6. The culture was then chilled with shaking over ice-water for 15 min then pelleted by centrifugation at 3,200×g for 10 min. Cells were then resuspended and washed with ice-cold ddH2O twice then resuspended in ice-cold ddH2O to an OD600 of 55-65. The electrocompetent cells (50 μL) and ˜1 ng of Golden Gate assembled plasmid with the UBP within the sfGFP and tRNAPyl genes (see Golden Gate Assembly of Plasmids) were transferred to a pre-chilled electroporation cuvette (0.2-cm-gap), then electroporated (Gene Pulser II; Bio-Rad) according to manufacturer's recommendations (voltage […], capacitor 2.5 μF, resistor 200Ω), and then immediately diluted with 950 μL of media. […] The culture was monitored for cell growth (Envision 2103 Multilabel Plate Reader with a 590/20 nm filter) and then collected at an OD600˜1.0. […]

COc1cc(C)c(F)cc1[C@@H]1O[C@H](COP(=O)(O)OP(=O)(O)OP(=O)(O)O)[C@@H](O)[C@H]1O [Compound 5FMTP]
Concentration for combined optimization of protein purity and yield (5FMTP and TAT1TP pair): 50 µM | XTP concentration below which lower fidelity of AzK incorporation into sfGFP was observed (with TAT1TP 12.5-100 μM): 50 µM
